Assay results reported in ChEMBL document CHEMBL1153375, “Synthesis and antibacterial activities of N-glycosylated derivatives of tyrocidine A, a macrocyclic peptide antibiotic” (2009).
Values after ≈ are worked out from the molar mass of the structure shown. Active and inactive are the calls of the source. No cut-off for these calls is given here.

Key:
[1] = test system: Bacillus subtilis; test: Antibacterial activity against Bacillus subtilis CMCC-B 63501 by twofold serial dilution method; assay type: functional
[2] = test system: Bacillus subtilis; test: Antibacterial activity against Bacillus subtilis CMCC-B 63501 up to 500 ug/ml by twofold serial dilution method; assay type: functional, organism-based
[3] = Bacillus subtilis, read-out: MIC

| SMILES | MIC [1, 3] | Activity [2] | other results |
| --- | --- | --- | --- |
| CC(C)C[C@@H]1NC(=O)[C@H](CCCN)NC(=O)[C@H](C(C)C)NC(=O)[C@H](Cc2ccc(O)cc2)NC(=O)[C@H](CCC(N)=O)NC(=O)[C@H](CC(=O)NCCO[C@@H]2O[C@H](CO)[C@@H](O[C@@H]3O[C@H](CO)C(O)[C@H](O)[C@H]3O)[C@H](O)[C@H]2O)NC(=O)C(Cc2ccccc2)NC(=O)[C@H](Cc2ccccc2)NC(=O)[C@@H]2CCCN2C(=O)C(Cc2ccccc2)NC1=O (single isomer, unassigned) | 62 µg/mL (≈ 37.8 µM) |  |  |
| CC(C)C[C@@H]1NC(=O)[C@H](CCCN)NC(=O)[C@H](C(C)C)NC(=O)[C@H](Cc2ccc(O)cc2)NC(=O)[C@H](CCC(N)=O)NC(=O)[C@H](CC(N)=O)NC(=O)[C@@H](Cc2ccccc2)NC(=O)[C@H](Cc2ccccc2)NC(=O)[C@@H]2CCCN2C(=O)[C@@H](Cc2ccccc2)NC1=O (stereo in doubt; 1) [TYROCIDINE A] | 31 µg/mL (≈ 24.4 µM) |  |  |
| CC(=O)N[C@@H]1[C@@H](O)[C@H](O[C@@H]2O[C@H](CO)[C@@H](O)[C@H](O)[C@H]2NC(C)=O)[C@@H](CO)O[C@H]1NC(=O)C[C@@H]1NC(=O)C(Cc2ccccc2)NC(=O)[C@H](Cc2ccccc2)NC(=O)[C@@H]2CCCN2C(=O)C(Cc2ccccc2)NC(=O)[C@H](CC(C)C)NC(=O)[C@H](CCCN)NC(=O)[C@H](C(C)C)NC(=O)[C@H](Cc2ccc(O)cc2)NC(=O)[C@H](CCC(N)=O)NC1=O (single isomer, unassigned) |  | inactive |  |
| CC(=O)N[C@@H]1[C@@H](O)[C@H](O)[C@@H](CO)O[C@H]1NC(=O)C[C@@H]1NC(=O)C(Cc2ccccc2)NC(=O)[C@H](Cc2ccccc2)NC(=O)[C@@H]2CCCN2C(=O)C(Cc2ccccc2)NC(=O)[C@H](CC(C)C)NC(=O)[C@H](CCCN)NC(=O)[C@H](C(C)C)NC(=O)[C@H](Cc2ccc(O)cc2)NC(=O)[C@H](CCC(N)=O)NC1=O (single isomer, unassigned) |  | inactive |  |
| CC(C)C[C@@H]1NC(=O)[C@H](CCCN)NC(=O)[C@H](C(C)C)NC(=O)[C@H](Cc2ccc(O)cc2)NC(=O)[C@H](CCC(N)=O)NC(=O)[C@H](CC(N)=O)NC(=O)[C@@H](Cc2ccccc2)NC(=O)[C@H](Cc2ccccc2)NC(=O)[C@@H]2CCCN2C(=O)[C@@H](Cc2ccccc2)NC1=O (stereo in doubt) [TYROCIDINE A] |  |  | MIC [1]: 20 µg/mL (≈ 15.7 µM) |
